A short description of the data set: physchem. The conditions noted are these: octan-1-ol/water, pH 7.4, LogD7.4.

For orientation: logD means the decadic logarithm of the distribution of all forms, ionised or not, between an organic phase and buffer at a given pH.

The compound `CN(C)CC(O)COc1ccc(Nc2nccc(Nc3cc(Cl)ccc3Cl)n2)cc1` (stereo unspecified) had a logD of 2.9.
In the case of `O=C(O)CC[C@@H]1c2ccccc2C[C@H]1NC(=O)c1cc2sc(Cl)c(Cl)c2[nH]1`, the logD was 2.84.
With `FC(F)(F)c1cc(COCC(c2ccccc2)N2CCNCC2)cc(C(F)(F)F)c1` (stereo unspecified), the logD amounted to 2.9.
`CC(C)C(NC(=O)Cn1c(C2CCCCC2)ncc(NC(=O)OCc2ccccc2)c1=O)C(=O)C(F)(F)F` (stereo unspecified) registered a logD of 2.87.
On to `O=S(=O)(NCC(c1ccccc1)N1CCCCCC1)c1ccc(F)c(F)c1` (stereo unspecified), for which the logD was found to be 2.84.
For the compound `N#Cc1ccc(S(=O)(=O)NCC(c2ccccc2)N2CCCCCC2)cc1` (stereo unspecified), the logD is 2.86.
`Cc1cc2n[nH]c(=O)n2c2cc(-c3ccc(CO)cc3)ccc12` returned a logD of 2.86.
As for `CS(=O)(=O)c1cccc(Nc2nccc(Nc3cccc4ocnc34)n2)c1`, the logD is 2.9.
Take `NC(=O)c1cnc(N[C@H]2CCCNC2)c2cc(-c3ccc(F)c(Cl)c3)sc12`: the logD was determined as 2.94.
The compound `Cc1cc(NC(=O)Nc2ccc(Cl)cc2)n(C)n1` came in with a logD of 2.96.
Compound `NC(=O)c1sc2nccc(Nc3ccccc3)c2c1N` gave a logD of 2.91.
In the case of `COc1ccc(Cn2c(=O)[nH]c3c(=O)n(CC(=O)NC(C(=O)C(F)(F)F)C(C)C)c(-c4ccccc4)cc3c2=O)cc1` (stereo unspecified) it was 2.93; in that of `O=C(Cc1ccccn1)c1ccc(Cl)cc1`, 2.96; in that of `COc1ccccc1C(=O)Nc1nc2ccccc2[nH]1`, 2.9.
Consider `CSc1ncccc1C(=O)NCC1CCCCC1`, for which the logD is 2.93.
Consider `Cc1cc(Nc2ncc(F)c(N[C@H]3[C@@H](C(N)=O)[C@@H]4C=C[C@H]3C4)n2)ccc1N1CCN(C)CC1`, for which the logD was 2.9.
The compound `CCCc1c(OCc2cccc(NC(=O)Cc3ccccc3C(=O)O)c2)ccc(C(C)=O)c1O` returned a logD of 2.95.
With `O=c1ccnc2cc(C#Cc3ccccc3)ccn12`, the logD turned out to be 2.9.
As for `CC[C@H](NC(=O)c1c([S+](C)[O-])c(-c2ccccc2)nc2c(F)cccc12)c1ccccc1` (stereo partly specified), the logD was 2.84.
Take `Nc1ccc2c(c1)C(=O)c1ccccc1-2`: the logD came out at 2.9.
`c1ccc(-c2cn3ccccc3n2)cc1` returned a logD of 2.9.
Compound `CCCC(=O)NCc1cncc(-c2ccc(F)cc2OC)c1` had a logD of 2.9.
`COc1cc(F)ccc1-c1cncc(CNC(=O)C2CC2)c1` registered a logD of 2.9.
`CN(CC[C@@H](Oc1ccc(-c2ccccc2)cc1)c1ccc(F)cc1)CC(=O)O` showed a logD of 2.86.
In the case of `CS(=O)(=O)c1ccc(CC(=O)N(C2CC2)C2CCN(CCC(c3ccccc3)c3ccccc3)CC2)cc1` it was 2.89.
As to `CCOc1ccc(Oc2ccc(S(=O)(=O)NC(=O)c3cccc(-c4ccc(Cl)c(Cl)c4)c3)cc2)cc1`, the logD was found to be 2.94.
In the case of `CC(=O)Nc1ccc(CC(=O)N(C)C2CCN(CCC(c3ccccc3)c3ccccc3)CC2)cc1`, the logD was 2.9.
`O=C(Nc1ccccc1)c1cc(Cl)ccc1O` returned a logD of 2.9.
As for `O=c1oc2cc(O)ccc2cc1-c1ccc(O)cc1`, the logD amounted to 2.9.
`O=S(=O)(Nc1cc(F)ccc1F)c1ccc(Cl)cc1` gave a logD of 2.9.
For the compound `CC(=O)N[C@@H]1CC2(CCN(Cc3ccc4[nH]c5ccccc5c4c3)CC2)c2ccccc21`, the logD was 2.96.
Regarding `CCCCCSc1nc2nc(N)sc2c(=O)[nH]1`, the logD was 2.86.
Under `O=C(Nc1ccc(N2CCOCC2)nc1)c1nnc(Nc2ccc(F)c(F)c2)o1` stands 2.9.
Compound `Cc1ccc(-c2[nH]cnc2C)cc1NC(=O)c1ccc(OCc2ccccn2)cc1` had a logD of 2.87.
For `CC(=O)N(C)c1ccc2ccn(-c3cc(NC4CC4)n4ncc(C#N)c4n3)c2c1`, the logD came to 2.9.
In the case of `CC(=O)Nc1ccc2c(c1)c(-c1cc(NC3CC3)n3ncc(C#N)c3n1)cn2C`, the logD amounted to 2.94.
For `C[C@@H]1CN(c2noc(C(F)F)n2)CCN1c1ncc(OCc2ccncc2C#N)cn1`, the logD came out at 2.85.
For the compound `CCn1c(=O)c2c(-c3cncn3C)n(Cc3ccnc4ccc(Cl)cc34)nc2n(CC2CC2)c1=O`, the log distribution coefficient (logD) came to 2.87.
In turn, `COc1ccc(NC(=O)CSc2nnc(C)n2-c2ccc(C)cc2)cc1` yielded a logD of 2.94.
Compound `O=C(NS(=O)(=O)c1cccc(C(F)(F)F)c1)N1CCC(N2CCC(Oc3ccc(Cl)c(Cl)c3)CC2)CC1` displayed a logD of 2.94.
The compound `CCc1cc(O)c(Oc2ccc(C(N)=O)cc2F)cc1F` came in with a logD of 2.87.
`CC(C)Cn1c(=O)n(C)c(=O)c2c(C(=O)N3CC[C@@H](O)C3)c(Oc3cccc4ccccc34)sc21` registered a log distribution coefficient (logD) of 2.87.
Regarding `CS(=O)(=O)c1ccc(C(=O)NC[C@@H](O)CN2CCC(Oc3ccc(Cl)c(Cl)c3)CC2)s1`, the logD came out at 2.86.
`CNc1cc(C(=O)Nc2ccc(N3CCOCC3)cc2)nc2c(N3CCN(C)CC3)cc(OC)cc12` registered a logD of 2.93.
As for `COCCC(NC(=O)C1(N)CCN(c2ncnc3[nH]ccc23)CC1)c1ccc(Cl)cc1` (stereo unspecified), the logD was 2.95.
Under `CC(=O)N(C)c1ccc(Nc2ncc3cc(-c4ccncc4)ccc3n2)cc1` stands 2.88; under `CC(C)C[C@H](CO)Nc1nc(SCc2ccncc2)nc2nc(N)sc12`, 2.9; under `O=C1C(=O)c2cc(-c3ccccc3F)ccc2-c2ccccc21`, 2.92.
With `COc1ccc(OC(F)(F)F)cc1CN[C@H]1CCCN[C@H]1c1ccccc1`, the logD stood at 2.9.
The compound `CC(C)C(NC(=O)Cn1c(-c2ccccc2)ccc(NC(=O)NCc2cccnc2)c1=O)C(=O)C(F)(F)F` (stereo unspecified) came in with a logD of 2.84.
As for `O=C(NC1Cc2ccccc2N(CC(=O)N2CCC(O)CC2)C1=O)c1cc2cc(Cl)sc2[nH]1` (stereo unspecified), the logD came out at 2.86.
The compound `CC(=O)NC[C@H]1CN(c2ccc(N3Cc4cccnc4C3)c(F)c2)C(=O)O1` gave a logD of 2.88.
In the case of `COc1cc2ncc(C(N)=O)c(Nc3ccccc3Cl)c2cc1OC` it was 2.89; in that of `CNC(=O)c1ccc(Nc2nccc(-c3cnc(C)n3C(C)C)n2)cc1F`, 2.95.
In the case of `COc1cc2ncc(C(N)=O)c(Nc3ccc(F)cc3F)c2cc1OC`, the logD turned out to be 2.95.
`COc1cc2ncc(C(N)=O)c(Nc3cc(F)ccc3F)c2cc1OC` had a logD of 2.9.
In the case of `O=c1oc2ccc(O)cc2cc1-c1ccc(O)cc1` it was 2.9; in that of `Cc1oc2cc(O)ccc2c(=O)c1-c1ccccc1`, 2.95.
As to `COC(=O)CCCC(=O)Nc1ccc2c(c1)-c1ccccc1C(=O)C2=O`, the logD came out at 2.96.
Compound `COC(=O)CCCCCCC(=O)Nc1ccc2c(c1)C(=O)C(=O)c1ccccc1-2` had a log distribution coefficient (logD) of 2.9.
Consider `Cc1cc(Nc2ncc(F)c(-c3cnc(C)n3C(C)C)n2)ccc1C(=O)N(C)C`, for which the logD came to 2.86.
The compound `CC(C)(C)NC(=O)[C@@H]1CN(Cc2cccnc2)CCN1C[C@@H](O)C[C@@H](Cc1ccccc1)C(=O)N[C@H]1c2ccccc2C[C@H]1O` displayed a logD of 2.9.
With `CS(=O)(=O)c1ccc(C(CCNC(=O)c2ccc(C#N)cc2)c2ccc(F)cc2)cc1` (stereo unspecified), the logD was determined as 2.9.
In turn, `CCCCC(NC(=O)CC1CCN(Cc2ccn(-c3ccc(C(F)(F)F)cc3)c2)CC1)c1ccc(=O)[nH]c1` (stereo unspecified) yielded a logD of 2.89.
Compound `CN1CCN(c2nc(NCCNc3ccc([N+](=O)[O-])cc3)c3ccccc3n2)CC1` returned a logD of 2.91.
Take `CN(C)CC1CCn2c(c(C3=C(c4cn(C)c5ccccc45)C(=O)NC3=O)c3ccccc32)C1` (stereo unspecified): the logD is 2.88.

Source of the values: ChEMBL document CHEMBL3301361, “Experimental in vitro DMPK and physicochemical data on a set of publicly disclosed compounds”.
